≈ marks a conversion by molar mass, not a printed value.
Tests used:
Format in all cases: cell-based
[1] = tested on: Pseudomonas aeruginosa UC-12120; assay: minimum inhibitory concentration (MIC) testing according to CLSI guidelines, Pseudomonas aeruginosa; settings: UC-12120, wild-type, labeled as 1091-05, overnight incubation, lower of duplicate values; for MIC: Pseudomonas aeruginosa, UC12120, read-out: AB-MBT: Pseudomonas aeruginosa 1091-05: MIC (MstRcn)
Method: (§1) In order to assess the compounds biological activity, the in vitro anti-bacterial activity of selected compounds described in the Examples 1-69 was evaluated by minimum inhibitory concentration (MIC) testing according to Clinical and Laboratory Standards Institute (CLSI, formerly NCCLS) guidelines. See: Clinical and Laboratory Standards Institute. Methods for Dilution Antimicrobial Susceptibility Tests for Bacteria that Grow Aerobically; Approved Standard-Eighth Edition. CLSI document M7-A8 [ISBN 1-56238-689-1]. Clinical and Laboratory Standards Institute, 940 West Valley Road, Suite 1400, Wayne, Pa. 19087-1898 USA, 2006; also Clinical and Laboratory Standards Institute. Performance Standards for Antimicrobial Susceptibility Testing; Twentieth Informational Supplement. CLSI document M100-S20 [ISBN1-56238-716-2]. Clinical and Laboratory Standards Institute.
(§2) The MIC determination is a standard laboratory method for evaluating the antibacterial activity of a compound. The MIC represents the lowest drug concentration that inhibits visible growth of bacteria following overnight incubation. […] Typically, the drug concentration range is broken down into 2-fold increments (e.g. 0.06 μg/mL, 0.12 μg/mL. 0.25 μg/mL, 0.50 μg/mL, 1.0 μg/mL, etc.) and the various drug concentrations are all individually incubated overnight with approximately the same number of bacteria. The MIC is then determined by visually inspecting the drug effect at each concentration, and identifying the lowest drug concentration that has inhibited bacterial growth as compared to the drug free control. Typically, bacteria continue to grow at drug concentrations lower than the MIC and don't grow at concentrations at and above the MIC.
(§3) The MIC values described in Table 1 below were derived from assays wherein each test compound was evaluated in duplicate. In cases where the duplicate values varied by 0-2-fold, the lower of the two values was reported below. Generally speaking, if the duplicate values varied by more than 2-fold, the assay was considered non-valid and was repeated until the variation between duplicate runs was ≦2-fold. In line with the CLSI guidelines referred to above, both control organisms and reference compounds were utilized in each MIC assay to provide proper quality control. MIC values generated with these control organisms and reference compounds were required to fall within a defined range for the assay to be considered valid and be included herein. Those skilled in the art will recognize that MIC values can and do vary from experiment to experiment. Generally speaking, it should be recognized that MIC values often vary +/−2-fold from experiment to experiment. While a single MIC is reported for each compound and each microorganism, the reader should not conclude that each compound was only tested once. Several of the compounds were subjected to multiple tests. The data reported in Table 1 is reflective of the compounds relative activity and different MICs may have been generated on these occasions in light with the guidelines described above.
(§4) The following bacterial strains were used in these MIC determinations:
1) Pseudomonas aeruginosa UC-12120: Wild-type, labeled as 1091-05;

[2] = tested on: Klebsiella pneumoniae 1000-02; assay: minimum inhibitory concentration (MIC) testing according to CLSI guidelines, Klebsiella pneumoniae; settings: ciprofloxacin-resistant, ESBL-expressing clinical isolate 1000-02, overnight incubation, lower of duplicate values; for MIC: Klebsiella pneumoniae, read-out: AB-MBT: Klebsiella pneumoniae 1000-02: MIC (MstRcnt)
Method: as §1, §2, §3, §4
2) Klebsiella pneumoniae: Ciprofloxacin-resistant isolate, expresses extended-spectrum beta-lactamases (ESBL), clinical isolate, labeled as 1000-02;

[3] = tested on: Acinetobacter baumannii/haemolyticus AB-3167; assay: minimum inhibitory concentration (MIC) testing according to CLSI guidelines, Acinetobacter; settings: multidrug-resistant clinical isolate AB-3167, overnight incubation, lower of duplicate values; for MIC: Acinetobacter baumannii, read-out: AB-MBT: Acinetobacter baumanii AB-3167: MIC (MstRcnt)
Method: as §1, §2, §3, §4
3) Acinetobacter baumannii/haemolyticus: Multidrug-resistant clinical isolate, labeled as AB-3167.

Work on `CC(C)(O/N=C(\C(=O)N[C@@H]1C(=O)N(S(=O)(=O)O)[C@@H]1CNC(=O)Nc1cc(=O)c(O)c[nH]1)c1csc(N)n1)C(=O)O` [Example 57, 2-({[(1Z)-1-(2-amino-1,3-thiazol-4-yl)-2-{[(2R,3S)-2-({[(5-hydroxy-4-oxo-1,4-dihydropyridin-2-yl)carbamoyl]amino}methyl)-4-oxo-1-sulfoazetidin-3-yl]amino}-2-oxoethylidene]amino}oxy)-2-methylpropanoic acid] yielded an MIC [1] of 2 µg/mL (≈ 3.32 µM), an MIC [2] of 4 µg/mL (≈ 6.64 µM) and an MIC [3] of 1 µg/mL (≈ 1.66 µM).
Work on `CC(C)(O/N=C(\C(=O)N[C@@H]1C(=O)N(S(=O)(=O)O)[C@@H]1CNc1ccc(C(=O)NCc2cc(=O)c(O)cn2O)cn1)c1csc(N)n1)C(=O)O` [Example 46, 2-({[(1Z)-1-(2-amino-1,3-thiazol-4-yl)-2-{[(2R,3S)-2-{[(5-{[(1,5-dihydroxy-4-oxo-1,4-dihydropyridin-2-yl)methyl]carbamoyl}pyridin-2-yl)amino]methyl}-4-oxo-1-sulfoazetidin-3-yl]amino}-2-oxoethylidene]amino}oxy)-2-methylpropanoic acid] yielded an MIC [1] of 0.25 µg/mL (≈ 0.352 µM), an MIC [2] of 2 µg/mL (≈ 2.82 µM) and an MIC [3] of 0.5 µg/mL (≈ 0.705 µM).
`CC(C)(O/N=C(\C(=O)N[C@@H]1C(=O)N(S(=O)(=O)O)[C@@H]1CNC(=O)c1ccc(C(=O)NCc2cc(=O)c(O)cn2O)cc1)c1csc(N)n1)C(=O)O` [Example 43, 2-({[(1Z)-1-(2-amino-1,3-thiazol-4-yl)-2-{[(2R,3S)-2-{[(4-{[(1,5-dihydroxy-4-oxo-1,4-dihydropyridin-2-yl)methyl]carbamoyl}benzoyl)amino]methyl}-4-oxo-1-sulfoazetidin-3-yl]amino}-2-oxoethylidene]amino}oxy)-2-methylpropanoic acid] gave an MIC [1] of 0.125 µg/mL (≈ 0.17 µM), an MIC [2] of 0.5 µg/mL (≈ 0.679 µM) and an MIC [3] of 0.25 µg/mL (≈ 0.339 µM).
`CC(C)(O/N=C(\C(=O)N[C@@H]1C(=O)N(S(=O)(=O)O)[C@@H]1CNC(=O)C1CN(Cc2cc(=O)c(O)c[nH]2)C1)c1csc(N)n1)C(=O)O` [Example 9, 2-({[(1Z)-1-(2-amino-1,3-thiazol-4-yl)-2-{[(2R,3S)-2-{[({1-[(5-hydroxy-4-oxo-1,4-dihydropyridin-2-yl)methyl]azetidin-3-yl}carbonyl)amino]methyl}-4-oxo-1-sulfoazetidin-3-yl]amino}-2-oxoethylidene]amino}oxy)-2-methylpropanoic acid] was tested, and the MIC [1] was 4 µg/mL (≈ 6.09 µM), the MIC [2] was 4 µg/mL (≈ 6.09 µM) and the MIC [3] was 2 µg/mL (≈ 3.05 µM).
For `CC(C)(O/N=C(\C(=O)N[C@@H]1C(=O)N(S(=O)(=O)O)[C@@H]1CNC(=O)NCc1cc(=O)c(O)cn1O)c1nsc(N)n1)C(=O)O` [Example 33, 2-({[(1Z)-1-(5-amino-1,2,4-thiadiazol-3-yl)-2-({(2R,3S)-2-[({[(1,5-dihydroxy-4-oxo-1,4-dihydropyridin-2-yl)methyl]carbamoyl}amino)methyl]-4-oxo-1-sulfoazetidin-3-yl}amino)-2-oxoethylidene]amino}oxy)-2-methylpropanoic acid], the MIC [1] was 0.25 µg/mL (≈ 0.395 µM), the MIC [2] was 2 µg/mL (≈ 3.16 µM) and the MIC [3] was 0.5 µg/mL (≈ 0.789 µM).
In the case of `Nc1nc(/C(=N/OC2(C(=O)O)CCCC2)C(=O)N[C@@H]2C(=O)N(S(=O)(=O)O)[C@@H]2CNC(=O)NCc2cc(=O)c(O)cn2O)cs1` [Example 26, 1-({[(1Z)-1-(2-amino-1,3-thiazol-4-yl)-2-({(2R,3S)-2-[({[(1,5-dihydroxy-4-oxo-1,4-dihydropyridin-2-yl)methyl]carbamoyl}amino)methyl]-4-oxo-1-sulfoazetidin-3-yl}amino)-2-oxoethylidene]amino}oxy)cyclopentanecarboxylic acid], the MIC [1] is reported as 0.125 µg/mL (≈ 0.19 µM), the MIC [2] is reported as 0.125 µg/mL (≈ 0.19 µM) and the MIC [3] is reported as 0.25 µg/mL (≈ 0.38 µM).
In the case of `CC(C)(O/N=C(\C(=O)N[C@@H]1C(=O)N(S(=O)(=O)O)[C@@H]1CNC(=O)OCc1cc(-c2cc(=O)c(O)cn2O)no1)c1csc(N)n1)C(=O)O` [Example 38, 2-(5-{[({[(2R,3S)-3-{[(2Z)-2-(2-amino-1,3-thiazol-4-yl)-2-{[(2-carboxypropan-2-yl)oxy]imino}acetyl]amino}-4-oxo-1-sulfoazetidin-2-yl]methyl}carbamoyl)oxy]methyl}isoxazol-3-yl)-1,5-dihydroxy-4-oxo-1,4-dihydropyridinium], the “AB-MBT: Pseudomonas aeruginosa 1091-05: MIC (MstRcn)” value [1] is reported as 2.0 µg/mL, the “AB-MBT: Klebsiella pneumoniae 1000-02: MIC (MstRcnt)” value [2] is reported as 0.5 µg/mL and the “AB-MBT: Acinetobacter baumanii AB-3167: MIC (MstRcnt)” value [3] is reported as 0.5 µg/mL.
In the case of `CC(C)(O/N=C(\C(=O)N[C@@H]1C(=O)N(S(=O)(=O)O)[C@@H]1CNC(=O)c1cccc(NC(=O)c2cc(=O)c(O)cn2O)c1)c1csc(N)n1)C(=O)O` [Example 67, 2-({[(1Z)-1-(2-amino-1,3-thiazol-4-yl)-2-{[(2R,3S)-2-{[(3-{[(1,5-dihydroxy-4-oxo-1,4-dihydropyridin-2-yl)carbonyl]amino}benzoyl)amino]methyl}-4-oxo-1-sulfoazetidin-3-yl]amino}-2-oxoethylidene]amino}oxy)-2-methylpropanoic acid], the MIC [1] is reported as 4 µg/mL (≈ 5.54 µM), the MIC [2] is reported as 4 µg/mL (≈ 5.54 µM) and the MIC [3] is reported as 2 µg/mL (≈ 2.77 µM).
Work on `CC(C)(O/N=C(\C(=O)N[C@@H]1C(=O)N(S(=O)(=O)O)[C@@H]1CNC(=O)NCc1cc(=O)c(O)cn1O)c1nc(N)sc1Cl)C(=O)O` [Example 29, 2-({[(1Z)-1-(2-amino-5-chloro-1,3-thiazol-4-yl)-2-({(2R,3S)-2-[({[(1,5-dihydroxy-4-oxo-1,4-dihydropyridin-2-yl)methyl]carbamoyl}amino)methyl]-4-oxo-1-sulfoazetidin-3-yl}amino)-2-oxoethylidene]amino}oxy)-2-methylpropanoic acid] yielded an MIC [1] of 0.25 µg/mL (≈ 0.375 µM), an MIC [2] of 1 µg/mL (≈ 1.5 µM) and an MIC [3] of 0.5 µg/mL (≈ 0.75 µM).
`Cn1cc(O)c(=O)cc1C(=O)NC[C@@H]1[C@H](NC(=O)/C(=N\OC(C)(C)C(=O)O)c2csc(N)n2)C(=O)N1S(=O)(=O)O` [Example 35, 2-({[(1Z)-1-(2-amino-1,3-thiazol-4-yl)-2-{[(2R,3S)-2-({[(5-hydroxy-1-methyl-4-oxo-1,4-dihydropyridin-2-yl)carbonyl]amino}methyl)-4-oxo-1-sulfoazetidin-3-yl]amino}-2-oxoethylidene]amino}oxy)-2-methylpropanoic acid] showed an MIC [1] of 4 µg/mL (≈ 6.65 µM), an MIC [2] of 0.25 µg/mL (≈ 0.416 µM) and an MIC [3] of 0.5 µg/mL (≈ 0.831 µM).
`CC(C)(O/N=C(\C(=O)N[C@@H]1C(=O)N(S(=O)(=O)O)[C@@H]1COC(=O)c1cc(-c2cc(=O)c(O)cn2O)no1)c1csc(N)n1)C(=O)O` [Example 13, 2-({[(1Z)-1-(2-amino-1,3-thiazol-4-yl)-2-({(2S,3S)-2-[({[3-(1,5-dihydroxy-4-oxo-1,4-dihydropyridin-2-yl)isoxazol-5-yl]carbonyl}oxy)methyl]-4-oxo-1-sulfoazetidin-3-yl}amino)-2-oxoethylidene]amino}oxy)-2-methylpropanoic acid] was tested, and the MIC [1] was 0.25 µg/mL (≈ 0.372 µM), the MIC [2] was 0.125 µg/mL (≈ 0.186 µM) and the MIC [3] was 0.5 µg/mL (≈ 0.745 µM).
`CC(C)(O/N=C(\C(=O)N[C@@H]1C(=O)N(S(=O)(=O)O)[C@@H]1CNC(=O)Cc1cccc(NC(=O)c2cc(=O)c(O)cn2O)c1)c1csc(N)n1)C(=O)O` [Example 56, 2-({[(1Z)-1-(2-amino-1,3-thiazol-4-yl)-2-{[(2R,3S)-2-({[(3-{[(1,5-dihydroxy-4-oxo-1,4-dihydropyridin-2-yl)carbonyl]amino}phenyl)acetyl]amino}methyl)-4-oxo-1-sulfoazetidin-3-yl]amino}-2-oxoethylidene]amino}oxy)-2-methylpropanoic acid] was tested, and the MIC [1] was 0.5 µg/mL (≈ 0.679 µM), the MIC [2] was 1 µg/mL (≈ 1.36 µM) and the MIC [3] was 1 µg/mL (≈ 1.36 µM).
